# pIC50: −log10 of the molar value.
# Legend:
# [1] = tested on: freshly collected sorted patient CD138+ myeloma cells; conditions: ex vivo, 24 hours, trypan blue exclusion
# Procedure: FIG. 3. […] Survival indicated in A-E was assessed using a trypan blue exclusion assay, counting viable cells using a hemocytometer after 24 hour exposure to the indicated drugs and drug concentrations.
# Patient bone marrow leukocytes were divided into myeloma (CD138+) and non-myeloma/normal leukocyte (CD138−) fractions employing sorting using magnetic bead technology in kit form (MACS CD138 microbeads, Miltenyi Biotech, Auburn, Calif.). Sorted cells were plated in a 96-well tissue culture plate at a concentration of 5×10^5 cells and dosed with indicated drug concentrations for 24 hours. Survival was assessed using a trypan blue exclusion assay.
# A549 cells = format: cell-based, human; conditions: within 1-2 minutes
# From the text: Measurement of intra- and extracellular chaetocin levels: Tumor cells treated with indicated chaetocin concentrations were washed twice with ice cold PBS, immediately solubilized in 0.5 M perchloric acid, and evaluated “real time” via HPLC using Beckman System Gold Nouveau Software with a dual pump 125 gradient pump system, 507e autosampler, 168 diode array detector, and Beckman Ultrasphere ODS column (4.6 mm×[…]×7 μm) using the following elution profile: 100% water to 100% methanol linear gradient over 40 minutes, followed by a 10 minute period of elution with 100% methanol. Quantitation was accomplished using a standard curve of peak areas derived from analogous HPLC data using varying concentrations of chaetocin.
# U266 myeloma cells = assay: ROS (superoxide) by FACS with hydroethidium in U266 cells; format: cell-based, human; conditions: 200 nM, p<0.001
# Procedure: FIG. 7. […] A549 cells were exposed to the indicated concentration of chaetocin for 24 hours, with addition of glutathione or diluent 30 minutes prior to chaetocin addition. Glutathione levels were assessed by spectrophotometric assay as described below. […] Cells were treated with 10 μM chaetocin for 20 minutes prior to assay, and calculated intracellular chaetocin levels were measured by HPLC with adjusted for differences in average cell volume (calculated from measured cell radii ascertained via light microscopy). Shaded area represents 1 standard deviation confidence interval, with central bar reflecting the mean relative intracellular chaetocin level. […] Cells from 4 myeloma patients were exposed to 200 μM hydrogen peroxide for 24 hours prior to assay, with trypan blue exclusion used to assess surviving cells.
# Assessment of cellular oxidative stress: Cellular oxidative stress was assessed utilizing 5,6-chloromethyl-2′,7′-dichlorodihydrofluorescein diacetate or hydroethidium (Molecular Probes/Invitrogen, Carlsbad, Calif.) as cell permeable fluorescent probes and FACS analyses.
# thioredoxin reductase = target: T1, thioredoxin reductase (Rattus norvegicus, UniProt O89049); assay: Thioredoxin reductase activity assay (gel-based oxidation state of thioredoxin method); format: biochemical
# T1 construct: rat liver thioredoxin reductase; purchased Sigma (St. Louis, Mo.); host or cells: rat liver
# T1 sequence (O89049 1-499): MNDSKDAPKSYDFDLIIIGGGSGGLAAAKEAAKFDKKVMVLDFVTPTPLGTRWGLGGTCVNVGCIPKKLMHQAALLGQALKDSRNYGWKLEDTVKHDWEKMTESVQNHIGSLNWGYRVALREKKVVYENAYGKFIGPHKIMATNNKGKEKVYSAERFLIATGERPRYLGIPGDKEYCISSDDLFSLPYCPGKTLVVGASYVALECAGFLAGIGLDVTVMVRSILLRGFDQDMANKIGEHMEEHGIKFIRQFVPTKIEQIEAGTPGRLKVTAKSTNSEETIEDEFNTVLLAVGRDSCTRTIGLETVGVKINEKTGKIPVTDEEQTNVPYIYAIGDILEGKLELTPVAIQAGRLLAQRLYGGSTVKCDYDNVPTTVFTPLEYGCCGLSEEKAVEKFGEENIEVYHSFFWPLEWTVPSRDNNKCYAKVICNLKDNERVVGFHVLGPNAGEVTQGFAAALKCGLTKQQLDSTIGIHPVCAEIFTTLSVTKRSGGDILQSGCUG
# Procedure: HeLa cells were obtained from ATCC.
# Thioredoxin Reductase Activity Assay (gel-based oxidation state of thioredoxin method): Reduction of thioredoxin by thioredoxin reductase was measured by the decrease in electrophoretic mobility caused by covalent modification of thioredoxin (by AMS) when the disulfide is reduced. […] At the indicated time, a 5 μL sample was removed and immediately added to 5 μL of 30 mM AMS in TE buffer (pH 7.5). The AMS was allowed to react (15 minutes at 22° C.) with reduced thioredoxin sulfhydryl groups, then the samples were mixed with non-reducing sample buffer and were electrophoresed on 18% Tris-HCl SDS-PAGE gels. The gels were stained with Coomassie blue and bands were imaged and quantitated using a Syngene InGenius gel documentation system (Frederick, Md.).
# normal plasma cells = assay: Survival of normal plasma cells and matched normal leucocytes, trypan blue exclusion; format: cell-based, human; conditions: 24 h exposure
# Procedure: A and B. Effects of chaetocin on survival of MGUS plasma cells and matched patient normal leucocytes from two patients (assessed by trypan blue exclusion assay, 24 h chaetocin exposures). C and D. Effects of chaetocin on survival of normal plasma cells and matched patient normal leucocytes from two patients (assessed by trypan blue exclusion assay, 24 h chaetocin exposures).
# TrxR1 = target: T2, TrxR1 (Rattus norvegicus, UniProt O89049); format: biochemical; set-up: rat liver thioredoxin reductase; purchased Sigma (St. Louis, Mo.); conditions: mass spectroscopy; data not shown
# T2 sequence (O89049 1-499): T1 sequence (O89049 1-499)
# Procedure: Samples were allowed to react at 22° C. for 15 min and then processed for analysis by desalting and fractionating using C18 ZipTips (Millipore Corporation, Bedford, Mass.). For the DTT/chaetocin reaction, the reaction proceeded for 20 min and was then spun down to remove precipitated insulin before loading onto ZipTips. ZipTips were conditioned with 60% acetonitrile:39% water:1% acetic acid and equilibrated with 1% acetic acid. Samples were acidified with glacial acetic acid and loaded onto an equilibrated ZipTip and washed with 1% acetic acid. Fractions were step-eluted off the ZipTip using 10 μl of 1% acetic acid in water containing 20, 30, 40, or 60% acetonitrile. Collected fractions were injected by loop injection (2 μl) directly into the mass spectrometer using a mobile phase of 30% acetonitrile:69% water:1% acetic acid at 5 μl/min. Mass spectra were collected on an Agilent Technologies LC/MSD-TOF mass spectrometer in positive electrospray ionization mode over a m/z range of 400 to 1500. The capillary, fragmentor, skimmer, and OCT RF voltages (3500, 185, 60, 200 volts, respectively) were optimized to enhance signal and minimize instrument fragmentation.
compound,measurement,setting,value
CN1C(=O)[C@@]23C[C@]4([C@]56C[C@@]78SS[C@@](CO)(C(=O)N7[C@H]5Nc5ccccc56)N(C)C8=O)c5ccccc5N[C@@H]4N2C(=O)[C@]1(CO)SS3 [chaetocin],effect on matched CD138- normal bone marrow leukocytes,[1],largely sparing
same,intracellular accumulation relative to applied extracellular concentration,A549 cells,10 fold
same,"peak shift (ROS, hydroethidium) relative to stained, untreated cells",U266 myeloma cells,43.26+3.67
same,inhibition of reduction of thioredoxin by thioredoxin reductase,"thioredoxin reductase; gel-based, AMS modification",inhibit the ability of TrxR1 to reduce Trx
same,pIC50,"thioredoxin reductase; initial linear portion of the reaction, read-out: IC50, reduction of thioredoxin by thioredoxin reductase",5.40
same,effect on granulocytes and other leukocytes,normal plasma cells,largely sparing granulocytes and other leukocytes
same,covalent adduct with TrxR1,TrxR1,no evidence of a covalent chaetocin-TrxR1 adduction
